Patent publication US9238647B2, “P2X3 receptor antagonists for treatment of pain” (Merck Sharp & Dohme Corp., priority 2009, dated 2016)

Target: T1, human P2X3 (Homo sapiens, UniProt P56373)
T1 construct: expressed in transfected cells
T1 sequence (P56373 1-397): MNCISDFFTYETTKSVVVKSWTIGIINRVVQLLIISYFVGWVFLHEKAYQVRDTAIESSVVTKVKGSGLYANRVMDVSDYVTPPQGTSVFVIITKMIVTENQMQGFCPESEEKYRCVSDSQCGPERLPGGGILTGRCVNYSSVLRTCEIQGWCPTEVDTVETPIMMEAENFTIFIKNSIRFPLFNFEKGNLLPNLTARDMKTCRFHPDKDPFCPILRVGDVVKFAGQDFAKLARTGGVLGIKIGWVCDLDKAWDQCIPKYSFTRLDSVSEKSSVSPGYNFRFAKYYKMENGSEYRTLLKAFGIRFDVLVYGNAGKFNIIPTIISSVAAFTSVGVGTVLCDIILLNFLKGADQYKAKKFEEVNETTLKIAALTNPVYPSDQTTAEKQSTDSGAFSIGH
Test: Intracellular Calcium Measurement to Assess Antagonist Affinity (FLIPR, Fluo-4, α,β-meATP agonist)
Format: cell-based
Details: cells expressing human P2X3; agonist α,β-meATP at EC50; antagonist added 10 min before agonist
From the text: Generation of a Human P2X3 and P2X2/3 Stable Cell Line—Human P2X3 receptor cDNA (Accession number NM_002559) was subcloned as a 5′XhoI and 3′HindIII fragment into the expression vector pcDNA5/FRT (Invitrogen). Human P2X2 receptor cDNA (Accession number NM_174873) was subcloned as a 5′EcoRI and 3′NotI fragment into the expression vector pIRESneo2 (BD Biosciences Clontech). The human P2X3 expression construct was transfected using Lipofectamine 2000 (Invitrogen) into Flp-in-293 cells (Invitrogen) according to the manufacturer's directions. Cells positive for flp-mediated recombination of […] P2X3 were selected using 150 μg/ml hygromycin. […]
Intracellular Calcium Measurement to Assess Antagonist Affinity—A fluorescent imaging plate reader (FLIPR; Molecular Devices) was used to monitor intracellular calcium levels using the calcium-chelating dye Fluo-4 (Molecular Probes). The excitation and emission wavelengths used to monitor fluorescence were 488 nm and 530 nm, respectively. […] During this period fluorescence data is collected at 3 sec intervals followed by 10 sec intervals. […] Following agonist addition fluorescence was measured at 5 sec intervals and analyzed based on the increase in peak relative fluorescence units (RFU) compared to the basal fluorescence. […]

In the case of `Cc1ccc(-c2cc(C(=O)N[C@H](C)c3ccc(C(F)(F)F)nc3)cc3nncn23)cc1` [Example 4.3, 5-(4-Methylphenyl)-N-{(1R)-1-[6-(trifluoromethyl)pyridin-3-yl]ethyl}[1,2,4]triazolo[4,3-a]pyridine-7-carboxamide], the IC50 is reported as 200 nM.
